A short description of data set [1]: Solubility evaluation: compound stirred in toluene, visual check for insoluble matter. The data set is classed as physicochemical. Particulars: for Presence of insoluble matter: 0.01 g of anthracene compound and 1 g of toluene, stirred, visual check; for solubility in toluene: concluded from visual check of 0.01 g compound in 1 g toluene. The text has this:
In order to evaluate a relationship between the soluble portion B and the solubility, how the solubility was changed depending on the bonding number U of the solubility portion B was examined.
As the compound, an anthracene compound as represented by the following formula was used.
A solubility portion B of the compound was structured as represented by the formula (3), and the bonding number of the solubility portion is represented by (a).
With the above structure, compounds respectively having bonding numbers (a) of 1, 2, 3 and 6 were synthesized.
Then, 0.01 g of the anthracene compound and 1 g of toluene were put into a glass bottle to be stirred.
Whether or not any insoluble matter was present in the solution was observed by a visual check.
In order to evaluate a relationship between unit(s) structuring the soluble portion B and the solubility, how the solubility was changed depending on the structure of the solubility portion B was examined.
Compounds used in the examination were AN-1, AN-3, AN-4 and an-1.
For evaluation of the solubility, as in the solubility evaluation 1, 0.01 g of the anthracene compound and 1 g of toluene were put into a glass bottle to be stirred. Then, whether or not any insoluble matter was present in the solution was observed by a visual check.

Data set [2] in a line: Solubility of compound (a) in toluene, evaluated in advance. In kind it is physicochemical.

We go through three compounds from patent publication US20080210905A1, “ORGANIC-ELECTROLUMINESCENCE-MATERIAL-CONTAINING SOLUTION, METHOD FOR SYNTHESIZING ORGANIC ELECTROLUMINESCENCE MATERIAL, COMPOUND SYNTHESIZED BY THE METHOD, METHOD FOR FORMING THIN FILM OF ORGANIC ELECTROLUMINESCENCE MATERIAL, THIN FILM OF ORGANIC ELECTROLUMINESCENCE MATERIAL AND ORGANIC …” (Idemitsu Kosan Co., Ltd., priority 2006, published 2008).

Take `c1ccc(-c2cccc(-c3ccc(-c4ccc(-c5cccc(-c6cccc(-c7cccc(-c8c9ccccc9c(-c9ccc%10ccccc%10c9)c9ccccc89)c7)c6)c5)cc4)cc3)c2)cc1` [AN-3]: in data set [1], the “Presence of insoluble matter” value is “no insoluble matter present” and the solubility in toluene was no less than 1 wt %.

Turning to `c1ccc(-c2ccc(-c3cccc(-c4cccc(-c5cccc(-c6cccc(-c7cccc(-c8c9ccccc9c(-c9ccc%10ccccc%10c9)c9ccccc89)c7)c6)c5)c4)c3)cc2)cc1` [AN-4], in data set [1], the “Presence of insoluble matter” value is given as “no insoluble matter present” and the solubility in toluene is reported as no less than 1 wt %.

Compound `c1ccc(-c2ccccc2-c2ccc3c(-c4ccccc4)c4ccccc4c(-c4ccccc4)c3c2)cc1` [compound (a)] returned a solubility in toluene in data set [2] of 10 wt %.
